Patent publication US20090111104A1, “Method for Monitoring Hydrolytic Activity” (Fluorotechnics Pty Limited, priority 2005, published 2009)
One block for each molecule: values may come before it.

How the values were obtained:
[1] = target: T1, BSA (Bos taurus, UniProt P02769); test: Real-time monitoring of chymotrypsin digestion of BSA using epicocconone; format: biochemical, bovine; details: bicine pH 7.8, 30° C., chymotrypsin 1:30
T1 construct: purchased Sigma-Aldrich A3059
Description: • 1. Chymotrypsin digestion was carried out in bicine buffer. • 2. BSA was prepared in 10 mg/mL in 50 mM bicine buffer. • 3. One hundred microliter of the BSA sample was used for chymotrypsin digestion.
• 1. The BSA sample (100 μL) was reduced by adding 5 μL of DTT stock and heating (80° C.) for 10 min. • 2. The sample was alkylated by adding the iodoacetamide (4 μL) stock at room temperature for 45 min-1 hr. • 3. The remaining iodoacetamide of the sample was neutralized by adding DTT (20 μL) and incubating room temp for 45 min-1 hr.
• 1. The reduced and denatured BSA sample from 2.2 was diluted 10-fold in 50 mM bicine buffer (25 μL+225 μL bicine buffer). BSA molar concentration was calculated to be approx. 6 μM. • 2. One hundred microliter of the sample (step 1) was prepared in duplicates and added to a microtiter plate. Controls included a bicine-based digestion buffer, a chymotrypsin sample only and an undigested BSA sample (no chymotrypsin). • 3. Epicocconone stock solution was diluted 100-fold in 50 mM bicine and 100 μL added to each well. The final concentration epicocconone was 12 μM. At this point in time, it required approximately 10 min to get appropriate FluoStar setting conditions. • 4. 2 μL of CaCl2 was added • 5. […] Fluorescence development was monitored in real time every 2 minutes up to 6 hours using FluoStar (Ex/Em=540/630−12). […]

[2] = target: T1, BSA; test: SDS-PAGE validation of BSA proteolysis in the presence of different fluorophores (Example 7); format: biochemical, bovine; details: after 120 minutes
Description: The normalised data were used for Prism analysis for obtaining the rate constants. In each case, the protein with fluorophore (open squares) is fitted to a single phase exponential decay (Y=span*exp(−kX)+plateau) and the value for k used as the fixed value for k1 in a two phase exponential decay (Y=span1*exp(−k1X)+span2*exp(−k2X)+plateau) for the protein plus papain (open circles). Through this method it was possible to measure the rate constants for hydrolysis and predict the time point for complete hydrolysis. […] It can be seen from this figure that the bands associated with the protein have disappeared after 120 minutes and that only a faint band for residual papain or trypsin can be seen. In some cases there are also some larger peptide fragments remaining after digestion that are resistant to further hydrolysis.

T1 sequence (P02769 25-607): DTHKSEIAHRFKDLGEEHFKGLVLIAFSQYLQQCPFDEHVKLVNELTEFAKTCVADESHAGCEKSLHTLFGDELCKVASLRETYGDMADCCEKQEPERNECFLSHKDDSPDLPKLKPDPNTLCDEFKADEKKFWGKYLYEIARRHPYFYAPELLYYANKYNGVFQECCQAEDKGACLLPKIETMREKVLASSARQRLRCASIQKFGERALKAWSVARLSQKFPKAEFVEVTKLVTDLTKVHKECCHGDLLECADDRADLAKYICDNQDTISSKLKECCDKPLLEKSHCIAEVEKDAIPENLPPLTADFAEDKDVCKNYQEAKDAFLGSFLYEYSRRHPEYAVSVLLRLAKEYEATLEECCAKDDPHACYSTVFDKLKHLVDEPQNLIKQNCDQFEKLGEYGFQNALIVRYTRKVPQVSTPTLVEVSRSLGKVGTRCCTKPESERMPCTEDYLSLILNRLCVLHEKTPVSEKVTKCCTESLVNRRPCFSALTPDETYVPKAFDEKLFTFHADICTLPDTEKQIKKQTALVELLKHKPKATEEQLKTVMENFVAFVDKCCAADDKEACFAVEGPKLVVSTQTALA

apparent first order rate constant [1]: 0.0447 min⁻¹
Molecule: chymotrypsin

digestion of BSA by SDS-PAGE [2]: complete digestion
B1: papain: Non-specific cysteine protease, Sigma-Aldrich P4762 (protein, UniProt P00784 134-345, looked up)
Papain: IPEYVDWRQKGAVTPVKNQGSCGSCWAFSAVVTIEGIIKIRTGNLNEYSEQELLDCDRRSYGCNGGYPWSALQLVAQYGIHYRNTYPYEGVQRYCRSREKGPYAAKTDGVRQVQPYNEGALLYSIANQPVSVVLEAAGKDFQLYRGGIFVGPCGNKVDHAVAAVGYGPNYILIKNSWGTGWGENGYIRIKRGTGNSYGVCGLYTSSFYPVKN
